Assay results reported in patent publication US20100009970A1, “COMPOSITIONS AND METHODS FOR TREATMENT OF VIRAL DISEASES” (Combinatorx (Singapore) Pte. Ltd., priority 2008, published 2010).
Several values for one entry are separate records, joined by “and”; a condition that tells them apart may be missing. Equal entries are not always repeated. Entries after “also recorded” stand apart in the source; their conditions may differ. Where two headings read alike, the source gives them in different places.

Experiments:
[1] = tested on: Huh7 cells expressing a subgenomic RNA replicon of Con1 (genotype 1b) sequence origin
SRI = SRI (Homo sapiens, UniProt P31645); test: BBB/Neurotransmitter Binding: SRI
in vitro = details: human
Huh7 parental cells = details: human
NRI = NRI (Homo sapiens, UniProt P23975); type: binding
[2] = tested on: Huh7 cells expressing a subgenomic RNA replicon of Con1 (genotype 1b) sequence origin; test: microbe, parasite or virus in culture; details: Hepatitis C virus; for IC90: Huh-7
HER1-2 = biological target: T1, HER1-2 (Homo sapiens, UniProt P04626); details: selective HER1 inhibitor (vs. HER1-2); cited from earlier work
T1 construct: the other entry of the earlier key: EGFR (P00533, Epidermal growth factor receptor)

[3] = general description; cited from earlier work
influenza A/PR/8/34 = tested on: influenza A/PR/8/34; set-up: species or system C57/BL6 mice; details: mouse, in vivo
[4] = Huh-7, read-out: Max effect @CC30 (%)

T1 sequence (P04626 with tags, fused parts or gaps): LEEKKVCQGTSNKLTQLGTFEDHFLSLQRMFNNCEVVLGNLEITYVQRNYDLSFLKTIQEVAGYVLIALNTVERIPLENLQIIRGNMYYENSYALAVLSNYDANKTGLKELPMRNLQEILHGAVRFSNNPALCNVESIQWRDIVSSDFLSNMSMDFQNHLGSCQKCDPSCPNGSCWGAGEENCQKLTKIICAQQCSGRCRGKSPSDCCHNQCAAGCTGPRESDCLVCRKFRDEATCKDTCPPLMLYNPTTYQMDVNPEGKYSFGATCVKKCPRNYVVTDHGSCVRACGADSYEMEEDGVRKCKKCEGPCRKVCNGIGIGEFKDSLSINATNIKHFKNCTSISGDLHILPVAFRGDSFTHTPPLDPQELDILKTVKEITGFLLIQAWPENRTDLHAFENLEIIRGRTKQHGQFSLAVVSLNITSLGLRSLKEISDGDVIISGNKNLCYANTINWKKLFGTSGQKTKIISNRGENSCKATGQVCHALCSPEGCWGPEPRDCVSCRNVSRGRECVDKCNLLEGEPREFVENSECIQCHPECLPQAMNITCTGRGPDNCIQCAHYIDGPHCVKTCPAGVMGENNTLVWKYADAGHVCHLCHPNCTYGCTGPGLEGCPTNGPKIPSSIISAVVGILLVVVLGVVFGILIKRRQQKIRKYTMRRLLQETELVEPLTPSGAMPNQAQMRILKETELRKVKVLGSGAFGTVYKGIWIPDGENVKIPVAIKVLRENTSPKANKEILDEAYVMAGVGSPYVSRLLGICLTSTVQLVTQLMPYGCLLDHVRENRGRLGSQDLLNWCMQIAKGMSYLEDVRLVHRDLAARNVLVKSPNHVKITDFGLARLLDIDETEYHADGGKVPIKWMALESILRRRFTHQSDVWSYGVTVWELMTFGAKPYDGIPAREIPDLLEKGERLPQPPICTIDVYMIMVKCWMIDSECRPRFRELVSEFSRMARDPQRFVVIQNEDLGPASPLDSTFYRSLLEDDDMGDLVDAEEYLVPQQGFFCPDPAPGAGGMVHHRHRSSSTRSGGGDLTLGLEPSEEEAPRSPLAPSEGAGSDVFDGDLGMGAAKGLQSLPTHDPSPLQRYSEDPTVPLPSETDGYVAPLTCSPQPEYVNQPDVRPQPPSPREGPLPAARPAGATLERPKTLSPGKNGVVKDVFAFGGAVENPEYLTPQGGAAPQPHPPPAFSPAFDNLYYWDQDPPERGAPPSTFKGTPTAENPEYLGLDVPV
Sequence of SRI (P31645 whole entry): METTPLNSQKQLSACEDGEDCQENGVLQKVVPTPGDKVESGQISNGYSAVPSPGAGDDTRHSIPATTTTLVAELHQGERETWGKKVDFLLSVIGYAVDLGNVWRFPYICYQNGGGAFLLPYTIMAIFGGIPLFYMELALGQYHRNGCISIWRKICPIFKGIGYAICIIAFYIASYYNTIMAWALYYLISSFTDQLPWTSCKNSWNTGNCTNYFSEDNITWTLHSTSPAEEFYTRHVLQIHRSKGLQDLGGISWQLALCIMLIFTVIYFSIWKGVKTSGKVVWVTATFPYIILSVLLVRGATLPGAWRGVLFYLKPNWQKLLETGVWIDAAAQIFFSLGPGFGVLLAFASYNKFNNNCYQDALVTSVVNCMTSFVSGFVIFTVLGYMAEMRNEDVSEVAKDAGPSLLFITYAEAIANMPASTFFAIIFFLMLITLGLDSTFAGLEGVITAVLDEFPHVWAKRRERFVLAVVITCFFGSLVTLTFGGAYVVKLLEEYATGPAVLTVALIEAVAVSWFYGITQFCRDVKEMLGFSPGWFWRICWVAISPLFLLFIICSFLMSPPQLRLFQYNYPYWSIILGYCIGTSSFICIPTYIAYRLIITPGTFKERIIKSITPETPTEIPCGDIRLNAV
Sequence of NRI (P23975 whole entry): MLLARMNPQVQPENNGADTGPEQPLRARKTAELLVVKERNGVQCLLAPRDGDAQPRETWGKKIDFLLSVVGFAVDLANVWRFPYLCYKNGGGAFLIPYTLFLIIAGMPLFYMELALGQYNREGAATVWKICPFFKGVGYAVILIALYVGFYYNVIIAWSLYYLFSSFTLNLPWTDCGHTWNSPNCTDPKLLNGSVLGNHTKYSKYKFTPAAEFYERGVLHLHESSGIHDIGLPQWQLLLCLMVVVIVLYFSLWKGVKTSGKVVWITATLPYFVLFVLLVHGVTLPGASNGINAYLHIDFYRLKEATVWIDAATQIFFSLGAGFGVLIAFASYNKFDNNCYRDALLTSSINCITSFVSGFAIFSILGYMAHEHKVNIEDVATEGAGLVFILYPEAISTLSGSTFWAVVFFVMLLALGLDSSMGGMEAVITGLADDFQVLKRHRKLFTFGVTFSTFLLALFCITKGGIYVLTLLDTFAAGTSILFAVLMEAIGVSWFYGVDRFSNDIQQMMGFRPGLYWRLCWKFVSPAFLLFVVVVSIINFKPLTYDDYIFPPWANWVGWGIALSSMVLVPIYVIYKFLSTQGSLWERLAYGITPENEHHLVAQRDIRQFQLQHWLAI

CN[C@H]1CC[C@@H](c2ccc(Cl)c(Cl)c2)c2ccc(C[S+](C)[O-])cc21 (stereo partly drawn) [(1S,4S)-4-(3,4-dichlorophenyl)-N-methyl-7-(methylsulfinylmethyl)-1,2,3,4-tetrahydronaphthalen-1-amine]
IC90 [1]: 5.17 µM and 5.15 µM | IC50 ([1]; read-out: IC50 (uM) [SG]): 1.55 µM | BBB/Neurotransmitter Binding (nM) SRI (SRI): 340 nM | CC50 (in vitro; CC50 (uM) [SG]): 14.8 ± 0.97 µM | CC50 (Huh7 parental cells): 15.3 µM | BBB/Neurotransmitter Binding (nM) NRI (NRI): 450 nM | IC90 [2]: 5.13 ± 0.16 µM | IC50 ([2]; Huh-7, read-out: IC50 (uM) [SG]): 1.34 ± 0.26 µM | Emax ([2]; Huh-7, read-out: Max Effect@CC30 (inhibition)): 96.5 ± 2.6% | Emax [2, 4]: 97.9 ± 1.1% | IC50 ([2]; Huh-7, read-out: SA IC50 (uM)): 1.46 ± 0.23 µM

N#C/C(=C\c1ccc(O)c(O)c1)C(=O)Nc1ccccc1 [AG-494, AG 494, reference compound]
IC50 [1]: 3.45 µM | IC50 (HER1-2): 45 µM

CC(=O)OC[C@H]1O[C@@H]([S-])[C@H](OC(C)=O)[C@@H](OC(C)=O)[C@@H]1OC(C)=O.CCP(CC)CC.[Au+] [Auranofin, reference compound]
solubility in water (in words) [3]: insoluble in water | IC50 [1]: 1.07 µM

CN[C@H]1CC[C@@H](c2ccc(Cl)c(Cl)c2)c2ccccc21 [Sertraline, sertraline, reference compound]
IC90 [1]: 9.65 µM | Max Effect@CC30 (inhibition) [1]: 75.12% | CC50 (in vitro; CC50 (uM)): 7.98 µM | CC50 (Huh7 parental cells): 7.7 µM | effect on survival rate (in words) (influenza A/PR/8/34): dose dependant increase in survival rate; also recorded: improves survival rate | IC90 [2]: 11.3 µM | Emax ([2]; Huh-7, read-out: Max Effect @CC30 (inhibition)): 68.5% | Emax [2, 4]: 62.6 ± 21.5%
